Experimental data as given in US11980613B2, “Methods for reversing HIV latency using BAF complex modulating compounds” (priority 2018, dated 2024).
pEC50: −log10 of the molar value.

Columns and labels:
[1] = tested on: Bmi1-luciferase reporter cell line; test: Bmi1-luciferase reporter assay (screen for inhibitors of BAF-mediated transcriptional repression); type: cell-based, mouse; details: for activity in the Bmi1 luciferase reporter assays: grading in words
Description: Low passage mESCs from 129 mice (20 million, p10) were electroporated with 40 μg of a linearized construct consisting of 2 kb homology upstream of the Bmi1 locus, firefly luciferase at exon 1 of Bmi1 followed by loxP neo and a 6 kb 3′ homology arm with thymidine kinase outside the homology arms. The cells were plated on 10 gelatin treated plates (60 mm) of irradiated neo resistant MEFs and selected with G418 and ganciclovir for 5 days. 384 colonies were selected, trypsinized and replated in gelatin treated 24-well plates for expansion. The cells were split and DNA was isolated for digestions with EcoRI or BamHI. We confirmed the successful homologous recombination in 7 out 384 colonies using Southern blot analysis at both the 5′ (EcoRI) and 3′ (BamHI) end (see Table S2 of Marian et al., “Small Molecule Targeting of Specific BAF (mSWI/SNF) Complexes for HIV Latency Reversal,” Cell Chem. Biol. (Dec. 20, 2018) 25: 1443-1445). We deleted the neomycin cassette using transfected Cre recombinase and confirmed the excision at all clones using a second round of Southern blot analysis at the 3′ end (BamHI).
(§1) 3. Compound Treatment: 10,000 cells in 30 μL ESC media were plated in white 384 well CellBind plates. The cells were cultured in a 37° C., 5% CO2 incubator for 24 h and 100 nL/well of 0.75 mM of positive control (Pubchem SID: 85814977) or 100 nL/well of 3.75 mM compound library (primary screen) was added via pin transfer into plates. There was no effect on assay readout at DMSO concentrations up to 0.5%. The cells were cultured in a 37° C., 5% CO2 incubator for 24 h for luciferase reporter assay and 18 h for qRT-PCR assay. 4. Luciferase assay: (PubChem AID 602393 primary, PubChem AID 651717 confirmatory.) The assay plates were removed from the incubator and equilibrates for 10 minutes to room temperature. Promega SteadyGlo® solution (10 μL/well) was added to each well of the assay plates. The assay plates were mixed at 1000 rpm for 15 seconds and then incubated for 10 minutes at room temperature. The luciferase levels were read on a Perkin Elmer Envision in Ultra Sensitive Luminescence mode. Signals remained stable up to 2 hours. 5. EqRT-PCR secondary screen (PubChem AID 743180, 743177, 743176) The qRTPCR screen was performed as published^54. In brief, 5,000 ES cells were plated on gelatin-coated 384-well tissue culture plates and cultured in a 37C, 5% CO2 incubator. 24 h later, hit compounds in 100 nL DMSO were treated at eight different doses. 18 h after compound treatment cells were washed two times with 100 μL PBS and all excess PBS was removed by centrifuging the plates upside down at 1000 rpm. The Ambion® Cells-to-Ct kit was used to generate cDNA. In brief, the cells were lysed in the plate in 10 μL lysis buffer containing DNase for 10 minutes and quenched with 1 μL lysis stop buffer. The lysate (2 μL) was added to 5 μL RT reaction buffer (2×), 2.5 μL nuclease-free water and 0.5 μL Reverse transcriptase (20×) and incubated at 37° C. for 60 minutes and 95° C. for 1 minute to generate 10 μL of cDNA. cDNA (1 μL) was used in each 5 μL qPCR reaction with Roche master mix and TaqMan probes (Applied Biosystems) for Bmi1-FAM (Mm00776122_gH), Ring1a-FAM (Mm01278940_m1/4331182), or Fgf4-FAM (Mm00438916_g1/4351372) alongside actin-VIC (4352341E) for a loading control. The qPCR was run accordingly: 95° C. for 10 minutes Then 55 cycles of: 95° C. for 10 seconds followed by 60° C. for 30 seconds. The fold increase in transcription was calculated using the ΔΔCT method^84. 6. Viability Assays (PubChem AID: 743188, 743189, 743190, 1053139, 1053140, 1053141)

[2] = tested on: BAF target genes (Bmi1, Ring1, Fgf4); test: qRT-PCR of BAF target genes in ESCs; type: cell-based, mouse; details: 30 μM of compound, 18 h
Description: as §1, with “The lysate (2 μL) was added to 5 μL RT reaction buffer (2×), 2.5 μL nuclease-free water and 0.5 μL Reverse transcriptase (20×) and incubated at 37° C. for 60 minutes and 95° C. for 1 minute to generate 10 μL of cDNA. cDNA (1 μL) was used in each 5 μL qPCR reaction with Roche master mix and TaqMan probes (Applied Biosystems) for Bmi1-FAM (Mm00776122_gH), Ring1a-FAM (Mm01278940_m1/4331182), or Fgf4-FAM (Mm00438916_g1/4351372) alongside actin-VIC (4352341E) for a loading control. The qPCR was run accordingly: 95° C. for 10 minutes Then 55 cycles of: 95° C. for 10 seconds followed by 60° C. for 30 seconds.” left out, “6. Viability Assays (PubChem AID: 743188, 743189, 743190, 1053139, 1053140, 1053141)” left out

wild type ESCs = test: Viability in wild type ESCs (CellTiter-Glo); type: cell-based, mouse; details: up to 30 μM; 72 h
Description: FIG. 2: 12-membered macrolactams are inhibitors of BAF-mediated transcription. A. The EC50 was measured for the best screen hit BRD-K98645985 after 24 h compound treatment with the Bmi1-luciferase reporter cell line. Each concentration was dosed in triplicate. B. The fold change of the transcription of three BAF target genes was calculated using qRT-PCR after 18 h BRD-K98645985 treatment (30 μM) or Brg1 knockdown compared to untreated cells. C. Viability measurements in wild type ESCs were performed after 72 h of compound or DMSO treatment using CellTiter-Glo®. D. The structure activity relationship of the eight stereoisomers of BRD-K98645985 based on initial luciferase induction from the primary screen. E. The structure activity relationship of the 3618 macrolactam library members based on initial luciferase induction from the primary screen.
Cell culture: HepG2, A549 and HEK293 cells were propagated to 95% confluence in DMEM containing 10% FBS 1% Pen/Strep, 1% L-Glutamine. Cells were plated at 2000 per well in 40 μL media in white tissue culture treated 384-well plates and incubated at 5% CO2; 95% humidity, 37° C. for 24 hours. […] The plates were read on Perkin-Elmer EnVision with standard luminescence settings for 0.1 sec per well.

HepG2 cells = test: Viability assay HepG2; type: cell-based; details: 72 h
Description: (§2) Cell culture: HepG2, A549 and HEK293 cells were propagated to 95% confluence in DMEM containing 10% FBS 1% Pen/Strep, 1% L-Glutamine. Cells were plated at 2000 per well in 40 μL media in white tissue culture treated 384-well plates and incubated at 5% CO2; 95% humidity, 37° C. for 24 hours. Compound (100 nL) was added to wells using a pin tool (CyBi Well) alongside 100 nL cytotoxic compounds, mitoxantrone (final concentration of 10 μM) as a positive control. The cells were incubated for 72 hours at 37° C., 95% humidity 5% CO2. Plates were removed from the incubator, equilibrated for 15 minutes to room temperature; and 20 μL 50% Promega CellTiterGlo (diluted 1:1 with PBS, pH 7.4) was added. The plates were read on Perkin-Elmer EnVision with standard luminescence settings for 0.1 sec per well.

HEK293T cells = test: Viability assay HEK293T; type: cell-based; details: 72 h
Description: as §2

A549 cells = test: Viability assay A549; type: cell-based; details: 72 h
Description: as §2

[3] = tested on: latent provirus in J-Lat T-cell line; test: Cell line models of HIV-1 latency (J-Lat, GFP); type: cell-based; details: higher concentrations than in primary cells; 48 h
Description: [drawing 27] i. BRD-K25923209: To Macrocycle 2141-039b (0.804 g, 1.550 mmol) dissolved in MeOH (Volume: 15.50 ml) was added tin(II) chloride dihydrate (3.50 g, 15.50 mmol). […] Upon completion, the reaction mixture was concentrated and the resulting residue was dissolved in EtOAc and washed with 2 M aq. KOH (2×). The combined aqueous layers were washed with EtOAc (4×). The resulting organic layers were washed with brine, saturated aqueous NaHCO3, water, and brine, dried over MgSO4, filtered, and concentrated. […] BRD-K80443127: A screwtop vial was charged with aniline (BRD-K25923209) (43.3 mg, 0.089 mmol) and CH2Cl2 (Volume: 886 μl, Density: 1.325 g/ml). Isopropyl chloroformate (115 μl, 0.115 mmol) and DIEA (46.4 μl, 0.266 mmol) were added dropwise and reaction stirred under ambient conditions for 1 h. […] BRD-K04244835: A 2.5 mL microwave vial was charged with aniline (BRD-K25923209) (40 mg, 0.082 mmol) and EtOH (Volume: 819 μl, Density: 0.81 g/ml). Squaramide (CRE-III-001) (20.75 mg, 0.098 mmol), DIEA (42.8 μl, 0.246 mmol), and DMAP (2.000 mg, 0.016 mmol) were added in sequence and the vial was sealed. […] 9. […] 10. […] 11.

[4] = tested on: latent HIV-1 infected T cells; test: HIV latency reversal activity of the thiophene hit; type: cell-based
[5] = tested on: latent HIV-1 in CD4+ T cells from c-ART treated HIV-1 infected patients; test: HIV latency reversal from patient samples (cell associated HIV Pol mRNA); type: cell-based, human; details: Patient 1 (one patient); single agents; 24 hours
Description: 23. HIV latency reversal from patient samples: All patients were older than 18 years, c-ART treated for at least 3 years, and their viral loads were below 50 copies/ml for more than 12 months with no blips in the past two years. CD4+ T cells from aviremic HIV+ patients were isolated as described previously^55 with minor modifications. Briefly, frozen PBMCs were cultured in RPMI medium over-night to recover. Then next day CD4+ T cells were isolated twice (enriched CD4+ T cells were subjected to a second round of CD4+ T cell enrichment) and left for 6 hrs to recover. Three million cells were treated with DMSO, 10 μM BRD-K80443127, 200 nM Prostratin, 10 μM BRD-K80443127 and 200 nM prostratin, and αCD3/CD28 magnetic beads (at cell:bead ration 1:1) as a positive control in triplicate. After 24 hours cells were lysed in TRIreagent (Sigma), total RNA was isolated with Total RNA Zol-Out (A&A Biotechnology) kit and cDNA was synthetized using random primers and Superscript II Reverse Transcriptase (Life Technologies). Detection of cellular associated pol RNA was performed as described previously (Pol: For […] (SEQ ID NO:15), Rev-[…] (SEQ ID NO: 16))^55. This study was conducted in accordance with the ethical principles of the Declaration of Helsinki. HIV-1 infected patient volunteers were informed and provided signed consent to participate in the study. The study protocol was approved by The Netherlands Medical Ethics Committee (MEC-2012-583). cDNA generated from control and 10 μM BRD-K80443127 treated samples was used to assess expression of BAF target genes biomarker genes-p21 and C-MYC.

For `CO[C@H]1CN(C)C(=O)c2cc(NC(=O)NC(C)C)ccc2OC[C@H](C)N(Cc2ccc(-c3ccccn3)cc2)C[C@@H]1C` [BRD-K98645985], the “activity in the Bmi1 luciferase reporter assays” value [1] was “high activity”, the pEC50 ([1]; re-evaluation of hit, 24 h compound treatment) was about 5.63 and the “fold decrease in Fgf4” value [2] was 3.3 fold. The “fold increase in Bmi1” value [2] was 5 fold, the “fold increase in Ring1” value [2] was 2.6 fold and the “toxicity to ESCs” value (wild type ESCs) was “no toxicity”. The “toxicity to HepG2 cells” value (HepG2 cells) was “no toxicity”, the “toxicity to HEK293T cells” value (HEK293T cells) was “no toxicity” and the “toxicity to A549 cells” value (A549 cells) was “no toxicity”. The “latency reversal (GFP)” value [3] was “concentration dependent latency reversal”.

With `CO[C@H]1CN(C)C(=O)c2cc(N)ccc2OC[C@H](C)N(Cc2ccc(-c3ccccn3)cc2)C[C@@H]1C` [BRD-K25923209] the “activity in the Bmi1 luciferase reporter assays” value [1] was “high activity”.

`CO[C@H]1CN(C)C(=O)c2cc(NC(=O)NC(C)C)ccc2OC[C@H](C)N(Cc2ccccc2)C[C@@H]1C` [BRD-K13648511] was tested, and the “activity in the Bmi1 luciferase reporter assays” value [1] was “low/no activity”.

For `CCC(CC)Nc1c(Nc2ccc3c(c2)C(=O)N(C)C[C@H](OC)[C@@H](C)CN(Cc2ccc(-c4ccccn4)cc2)[C@@H](C)CO3)c(=O)c1=O` [BRD-K04244835], the “activity in the Bmi1 luciferase reporter assays” value [1] was “low/no activity”.

With `C=CCNc1nc(NCc2cccc(OC)c2)c2sc(-c3ccccc3)cc2n1` [MLS003122856] the “HIV latency reversal activity” value [4] was “moderate”.

`CC(=O)O[C@@]12C[C@@H](C)[C@@]3(O)[C@@H](C=C(CO)C[C@]4(O)C(=O)C(C)=C[C@@H]34)[C@@H]1C2(C)C` [prostratin, reference compound] was tested, and the “cell associated HIV mRNA (Pol), response” value [5] was “responded”.

With `CO[C@H]1CN(C)C(=O)c2cc(NC(=O)NC(C)C)ccc2OC[C@H](C)N(Cc2ccc(-c3cccnc3)cc2)C[C@@H]1C` [BRD-K17257309] the “activity in the Bmi1 luciferase reporter assays” value [1] was “moderate activity”.
